{"source": "PubChem BioAssay (NCI)", "assay_in_all_cases": "NCI-60 cell line screen, 384-well format", "key": {"A549 NSCLC": {"system": "A549 NSCLC"}, "BT-549 breast": {"system": "BT-549 breast"}, "CAKI-1 renal": {"system": "CAKI-1 renal"}, "CCRF-CEM leukemia": {"system": "CCRF-CEM leukemia"}, "COLO 205 colon": {"system": "COLO 205 colon"}, "EKVX NSCLC": {"system": "EKVX NSCLC"}, "HCC-2998 colon": {"system": "HCC-2998 colon"}, "HL-60(TB) leukemia": {"system": "HL-60(TB) leukemia"}, "HOP-62 NSCLC": {"system": "HOP-62 NSCLC"}, "HS 578T breast": {"system": "HS 578T breast"}, "KM12 colon": {"system": "KM12 colon"}, "LOX IMVI melanoma": {"system": "LOX IMVI melanoma"}, "M14 melanoma": {"system": "M14 melanoma"}, "MALME-3M melanoma": {"system": "MALME-3M melanoma"}, "MDA-MB-435 melanoma": {"system": "MDA-MB-435 melanoma"}, "MDA-MB-468 breast": {"system": "MDA-MB-468 breast"}, "MOLT-4 leukemia": {"system": "MOLT-4 leukemia"}, "NCI-H226 lung": {"system": "NCI-H226 lung"}, "NCI-H23 lung": {"system": "NCI-H23 lung"}, "NCI-H322M lung": {"system": "NCI-H322M lung"}, "NCI-H460 NSCLC": {"system": "NCI-H460 NSCLC"}, "NCI-H522 lung": {"system": "NCI-H522 lung"}, "NCI/ADR-RES ovarian": {"system": "NCI/ADR-RES ovarian"}, "OVCAR-3 ovarian": {"system": "OVCAR-3 ovarian"}, "OVCAR-4 ovarian": {"system": "OVCAR-4 ovarian"}, "OVCAR-5 ovarian": {"system": "OVCAR-5 ovarian"}, "OVCAR-8 ovarian": {"system": "OVCAR-8 ovarian"}, "RPMI-8226 leukemia": {"system": "RPMI-8226 leukemia"}, "RXF 393 renal": {"system": "RXF 393 renal"}, "SF-268 CNS": {"system": "SF-268 CNS"}, "SF-539 CNS": {"system": "SF-539 CNS"}, "SK-MEL-28 melanoma": {"system": "SK-MEL-28 melanoma"}, "SK-MEL-5 melanoma": {"system": "SK-MEL-5 melanoma"}, "SN12C renal": {"system": "SN12C renal"}, "SNB-19 CNS": {"system": "SNB-19 CNS"}, "SNB-75 CNS": {"system": "SNB-75 CNS"}, "SR leukemia": {"system": "SR leukemia"}, "SW-620 colon": {"system": "SW-620 colon"}, "TK-10 renal": {"system": "TK-10 renal"}, "UACC-257 melanoma": {"system": "UACC-257 melanoma"}, "UACC-62 melanoma": {"system": "UACC-62 melanoma"}, "UO-31 renal": {"system": "UO-31 renal"}}, "note": "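GI50 is the concentration that inhibits growth by half. TGI denotes the concentration required for complete inhibition of growth.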"}
{"smiles": "CN1CC[C@@H](c2c(O)cc(O)c3c(=O)cc(-c4ccccc4Cl)oc23)[C@@H](O)C1", "values": [{"measurement": "GI50", "setting": "A549 NSCLC", "result": 34.9, "unit": "nM"}, {"measurement": "TGI", "setting": "A549 NSCLC", "result": "> 100000", "unit": "nM"}, {"measurement": "GI50", "setting": "BT-549 breast", "result": 25.6, "unit": "nM"}, {"measurement": "TGI", "setting": "BT-549 breast", "result": 90.8, "unit": "nM"}, {"measurement": "GI50", "setting": "CAKI-1 renal", "result": 35.1, "unit": "nM"}, {"measurement": "TGI", "setting": "CAKI-1 renal", "result": "> 100000", "unit": "nM"}, {"measurement": "GI50", "setting": "CCRF-CEM leukemia", "result": 19.4, "unit": "nM"}, {"measurement": "TGI", "setting": "CCRF-CEM leukemia", "result": 36.1, "unit": "nM"}, {"measurement": "GI50", "setting": "COLO 205 colon", "result": 31.3, "unit": "nM"}, {"measurement": "TGI", "setting": "COLO 205 colon", "result": 82.4, "unit": "nM"}, {"measurement": "GI50", "setting": "EKVX NSCLC", "result": 59.9, "unit": "nM"}, {"measurement": "TGI", "setting": "EKVX NSCLC", "result": 299, "unit": "nM"}, {"measurement": "GI50", "setting": "HCC-2998 colon", "result": 42.4, "unit": "nM"}, {"measurement": "TGI", "setting": "HCC-2998 colon", "result": 151, "unit": "nM"}, {"measurement": "GI50", "setting": "HL-60(TB) leukemia", "result": 13.3, "unit": "nM"}, {"measurement": "TGI", "setting": "HL-60(TB) leukemia", "result": 26.3, "unit": "nM"}, {"measurement": "GI50", "setting": "HOP-62 NSCLC", "result": 20.2, "unit": "nM"}, {"measurement": "TGI", "setting": "HOP-62 NSCLC", "result": 45.6, "unit": "nM"}, {"measurement": "GI50", "setting": "HS 578T breast", "result": 22.8, "unit": "nM"}, {"measurement": "TGI", "setting": "HS 578T breast", "result": 47.9, "unit": "nM"}, {"measurement": "GI50", "setting": "KM12 colon", "result": 27.9, "unit": "nM"}, {"measurement": "TGI", "setting": "KM12 colon", "result": 244, "unit": "nM"}, {"measurement": "GI50", "setting": "LOX IMVI melanoma", "result": 20.8, "unit": "nM"}, {"measurement": "TGI", "setting": "LOX IMVI melanoma", "result": 63.2, "unit": "nM"}, {"measurement": "GI50", "setting": "M14 melanoma", "result": 32.5, "unit": "nM"}, {"measurement": "TGI", "setting": "M14 melanoma", "result": 116, "unit": "nM"}, {"measurement": "GI50", "setting": "MALME-3M melanoma", "result": 42.5, "unit": "nM"}, {"measurement": "TGI", "setting": "MALME-3M melanoma", "result": 141, "unit": "nM"}, {"measurement": "GI50", "setting": "MDA-MB-435 melanoma", "result": 103, "unit": "nM"}, {"measurement": "TGI", "setting": "MDA-MB-435 melanoma", "result": 255, "unit": "nM"}, {"measurement": "GI50", "setting": "MDA-MB-468 breast", "result": 28.3, "unit": "nM"}, {"measurement": "TGI", "setting": "MDA-MB-468 breast", "result": 87.4, "unit": "nM"}, {"measurement": "GI50", "setting": "MOLT-4 leukemia", "result": 23.7, "unit": "nM"}, {"measurement": "TGI", "setting": "MOLT-4 leukemia", "result": 45, "unit": "nM"}, {"measurement": "GI50", "setting": "NCI-H226 lung", "result": 18.7, "unit": "nM"}, {"measurement": "TGI", "setting": "NCI-H226 lung", "result": 63.9, "unit": "nM"}, {"measurement": "GI50", "setting": "NCI-H23 lung", "result": 30.1, "unit": "nM"}, {"measurement": "TGI", "setting": "NCI-H23 lung", "result": 112, "unit": "nM"}, {"measurement": "GI50", "setting": "NCI-H322M lung", "result": 33.7, "unit": "nM"}, {"measurement": "TGI", "setting": "NCI-H322M lung", "result": 126, "unit": "nM"}, {"measurement": "GI50", "setting": "NCI-H460 NSCLC", "result": 21.5, "unit": "nM"}, {"measurement": "TGI", "setting": "NCI-H460 NSCLC", "result": 49.6, "unit": "nM"}, {"measurement": "GI50", "setting": "NCI-H522 lung", "result": 109, "unit": "nM"}, {"measurement": "TGI", "setting": "NCI-H522 lung", "result": 252, "unit": "nM"}, {"measurement": "GI50", "setting": "NCI/ADR-RES ovarian", "result": 89.6, "unit": "nM"}, {"measurement": "TGI", "setting": "NCI/ADR-RES ovarian", "result": 319, "unit": "nM"}, {"measurement": "GI50", "setting": "OVCAR-3 ovarian", "result": 33.1, "unit": "nM"}, {"measurement": "TGI", "setting": "OVCAR-3 ovarian", "result": 95, "unit": "nM"}, {"measurement": "GI50", "setting": "OVCAR-4 ovarian", "result": 59.6, "unit": "nM"}, {"measurement": "TGI", "setting": "OVCAR-4 ovarian", "result": 282, "unit": "nM"}, {"measurement": "GI50", "setting": "OVCAR-5 ovarian", "result": 24.2, "unit": "nM"}, {"measurement": "TGI", "setting": "OVCAR-5 ovarian", "result": 70.8, "unit": "nM"}, {"measurement": "GI50", "setting": "OVCAR-8 ovarian", "result": 25, "unit": "nM"}, {"measurement": "TGI", "setting": "OVCAR-8 ovarian", "result": 78, "unit": "nM"}, {"measurement": "GI50", "setting": "RPMI-8226 leukemia", "result": 22.7, "unit": "nM"}, {"measurement": "TGI", "setting": "RPMI-8226 leukemia", "result": 51.3, "unit": "nM"}, {"measurement": "GI50", "setting": "RXF 393 renal", "result": 19.1, "unit": "nM"}, {"measurement": "TGI", "setting": "RXF 393 renal", "result": 38.6, "unit": "nM"}, {"measurement": "GI50", "setting": "SF-268 CNS", "result": 17.8, "unit": "nM"}, {"measurement": "TGI", "setting": "SF-268 CNS", "result": 38.6, "unit": "nM"}, {"measurement": "GI50", "setting": "SF-539 CNS", "result": 24.7, "unit": "nM"}, {"measurement": "TGI", "setting": "SF-539 CNS", "result": 72, "unit": "nM"}, {"measurement": "GI50", "setting": "SK-MEL-28 melanoma", "result": 28.5, "unit": "nM"}, {"measurement": "TGI", "setting": "SK-MEL-28 melanoma", "result": 132, "unit": "nM"}, {"measurement": "GI50", "setting": "SK-MEL-5 melanoma", "result": 29.8, "unit": "nM"}, {"measurement": "TGI", "setting": "SK-MEL-5 melanoma", "result": 56.8, "unit": "nM"}, {"measurement": "GI50", "setting": "SN12C renal", "result": 28, "unit": "nM"}, {"measurement": "TGI", "setting": "SN12C renal", "result": 91.1, "unit": "nM"}, {"measurement": "GI50", "setting": "SNB-19 CNS", "result": 50.3, "unit": "nM"}, {"measurement": "TGI", "setting": "SNB-19 CNS", "result": "> 100000", "unit": "nM"}, {"measurement": "GI50", "setting": "SNB-75 CNS", "result": 113, "unit": "nM"}, {"measurement": "TGI", "setting": "SNB-75 CNS", "result": 244, "unit": "nM"}, {"measurement": "GI50", "setting": "SR leukemia", "result": 10.2, "unit": "nM"}, {"measurement": "TGI", "setting": "SR leukemia", "result": 22.2, "unit": "nM"}, {"measurement": "GI50", "setting": "SW-620 colon", "result": 34.8, "unit": "nM"}, {"measurement": "TGI", "setting": "SW-620 colon", "result": 204, "unit": "nM"}, {"measurement": "GI50", "setting": "TK-10 renal", "result": 35.7, "unit": "nM"}, {"measurement": "TGI", "setting": "TK-10 renal", "result": "> 100000", "unit": "nM"}, {"measurement": "GI50", "setting": "UACC-257 melanoma", "result": 51.5, "unit": "nM"}, {"measurement": "TGI", "setting": "UACC-257 melanoma", "result": 173, "unit": "nM"}, {"measurement": "GI50", "setting": "UACC-62 melanoma", "result": 17.8, "unit": "nM"}, {"measurement": "TGI", "setting": "UACC-62 melanoma", "result": 40.7, "unit": "nM"}, {"measurement": "GI50", "setting": "UO-31 renal", "result": 36, "unit": "nM"}, {"measurement": "TGI", "setting": "UO-31 renal", "result": "> 100000", "unit": "nM"}]}
